Experimental data taken from patent US3965257A, “Compositions and methods for the treatment of the symptoms of histamine induced allergic reactions” (Richardson-Merrell Inc., priority 1974, dated 1976).

Experiments:
[1] = test system: wheals induced by intradermal injections of histamine; test: reduction by 50% of wheals induced by intradermal injections of histamine into guinea pigs; type: in vivo, guinea pig; settings: Cavia porcellus, po, 1 h, orally administered one hour prior to the histamine injection, read-out: ED50 (amount required to reduce by 50% wheals induced by intradermal injections of histamine)
[2] = test system: aerosol antigen induced bronchial spasms and death; test: prevention of aerosol antigen induced bronchial spasms and death in the guinea pig; type: in vivo; settings: Cavia porcellus, po, orally, read-out: minimal amount required to prevent aerosol antigen induced bronchial spasms and death
From the text: The minimal amounts of the compounds of Examples 4,5,6 and 9 required to prevent aerosol antigen induced bronchial spasms and death in the quinea pig are respectively 1.0, 4.0, 1.0 and 4.0 milligrams per kilogram of body weight orally.

Row | Structure (SMILES) | ED50 [1] [mg/kg] | minimal effective dose [2] [mg/kg]
1 | Cc1ccc(C(=O)CCCN2CCC(C(O)(c3ccccc3)c3ccccc3)CC2)cc1.Cl [Example 5, 4-[4-(α-Hydroxy-α-phenylbenzyl)piperidino] -4'-methylbutyrophenone hydrochloride] | 1.9 | 4
2 | O=C(CCCN1CCC(C(O)(c2ccccc2)c2ccccc2)CC1)c1ccc(N2CCCCC2)cc1 [Example 9, 4-[4-(α-Hydroxy-α-phenylbenzyl)piperidino]-4'-piperidinobutyrophenone] | 3.4 | 4
3 | Cl.O=C(CCCN1CCC(C(O)(c2ccccc2)c2ccccc2)CC1)c1cccs1 [Example 4, 4-[4-(α -Hydroxy-α -phenylbenzyl)piperidino] -1-(2-thienyl)-butan-1-one hydrochloride] | 3.1 | 1
4 | CC(C)(C)c1ccc(C(=O)CCCN2CCC(C(O)(c3ccccc3)c3ccccc3)CC2)cc1.Cl [Example 6, 4'-tert-Butyl-4-[4-(α-hydroxy-α-phenylbenzyl)piperidino] butyrophenone hydrochloride] | 1.8 | 1
